Test results from patent US6274606A, “Methods of treating central nervous system disorders with aryl substituted olefinic amine compounds” (Targacept, Inc., priority 1998, dated 2001).

Legend:
Type in all cases: cell-based
ganglionic receptors = biological target: T1, ganglionic receptors (Rattus norvegicus, UniProt P04757+P12392); assay: cell-based; details: for Ganglion Effect (% nicotine): ganglionic cell preparations
T1 construct: endogenous in cells; host or cells: cell preparations derived from the adrenal gland

muscle receptors = biological target: T2, muscle receptors (Homo sapiens, UniProt P02708+P07510+Q07001); details: muscle cell preparations
T2 construct: endogenous in cells; host or cells: cell preparations derived from muscle

CNS nicotinic receptors = assay: Determination of Dopamine Release
Procedure: As such, these compounds have the ability to cause relevant neurons to release or secrete acetylcholine, dopamine, and other neurotransmitters. […] Certain compounds of the present invention can provide secretion of dopamine in an amount which can exceed that elicited by an equal molar amount of (S)-(-)-nicotine.
Determination of Dolpamine Release
Dopamine release was measured using the techniques described in U.S. Pat. No. 5,597,919 to Dull et al., the subject matter of which is already incorporated herein by reference in its entirety. […] Reported EC50 is expressed in nM and Emax represent the amount released relative to nicotine.

T1 sequence (P04757 26-499): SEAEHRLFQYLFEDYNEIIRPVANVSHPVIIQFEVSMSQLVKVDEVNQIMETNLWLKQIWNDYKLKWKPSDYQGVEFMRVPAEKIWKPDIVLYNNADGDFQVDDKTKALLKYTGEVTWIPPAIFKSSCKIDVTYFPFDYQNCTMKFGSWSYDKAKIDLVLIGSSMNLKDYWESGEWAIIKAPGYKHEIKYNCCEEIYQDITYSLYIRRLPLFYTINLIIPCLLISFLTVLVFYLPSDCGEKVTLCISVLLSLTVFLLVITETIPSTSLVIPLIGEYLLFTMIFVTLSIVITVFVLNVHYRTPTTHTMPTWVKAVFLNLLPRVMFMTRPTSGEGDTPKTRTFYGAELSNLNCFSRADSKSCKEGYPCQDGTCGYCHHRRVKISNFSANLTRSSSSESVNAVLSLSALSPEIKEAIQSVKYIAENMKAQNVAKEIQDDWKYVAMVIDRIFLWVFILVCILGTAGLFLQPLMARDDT
T1 sequence (P12392 21-495): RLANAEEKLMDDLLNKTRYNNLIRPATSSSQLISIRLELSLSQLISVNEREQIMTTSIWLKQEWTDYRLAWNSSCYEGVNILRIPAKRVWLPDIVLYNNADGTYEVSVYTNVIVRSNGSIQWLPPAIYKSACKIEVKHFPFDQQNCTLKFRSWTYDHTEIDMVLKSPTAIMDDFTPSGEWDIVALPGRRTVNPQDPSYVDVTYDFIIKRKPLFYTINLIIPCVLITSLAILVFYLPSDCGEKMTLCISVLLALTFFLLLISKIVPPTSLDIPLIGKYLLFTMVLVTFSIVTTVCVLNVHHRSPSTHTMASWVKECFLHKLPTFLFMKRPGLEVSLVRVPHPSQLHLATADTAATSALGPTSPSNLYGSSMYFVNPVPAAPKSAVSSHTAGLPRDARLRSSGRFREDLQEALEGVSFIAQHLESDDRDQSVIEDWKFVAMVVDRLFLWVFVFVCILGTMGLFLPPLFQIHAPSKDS
T2 sequence (P07510 23-517): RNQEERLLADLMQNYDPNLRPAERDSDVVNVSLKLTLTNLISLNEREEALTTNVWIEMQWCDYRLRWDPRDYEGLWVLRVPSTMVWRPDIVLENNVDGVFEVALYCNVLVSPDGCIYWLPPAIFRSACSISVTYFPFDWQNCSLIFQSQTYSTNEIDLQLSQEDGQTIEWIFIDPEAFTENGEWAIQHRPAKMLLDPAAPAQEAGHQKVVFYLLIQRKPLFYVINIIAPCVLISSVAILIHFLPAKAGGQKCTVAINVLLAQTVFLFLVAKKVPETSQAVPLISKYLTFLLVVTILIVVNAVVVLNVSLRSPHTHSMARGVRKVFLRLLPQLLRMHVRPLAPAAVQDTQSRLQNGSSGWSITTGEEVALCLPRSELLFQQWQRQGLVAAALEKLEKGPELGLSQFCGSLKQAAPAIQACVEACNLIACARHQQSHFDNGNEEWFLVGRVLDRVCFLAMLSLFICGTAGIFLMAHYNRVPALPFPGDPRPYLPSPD
T2 sequence (P11230 24-501, further chain): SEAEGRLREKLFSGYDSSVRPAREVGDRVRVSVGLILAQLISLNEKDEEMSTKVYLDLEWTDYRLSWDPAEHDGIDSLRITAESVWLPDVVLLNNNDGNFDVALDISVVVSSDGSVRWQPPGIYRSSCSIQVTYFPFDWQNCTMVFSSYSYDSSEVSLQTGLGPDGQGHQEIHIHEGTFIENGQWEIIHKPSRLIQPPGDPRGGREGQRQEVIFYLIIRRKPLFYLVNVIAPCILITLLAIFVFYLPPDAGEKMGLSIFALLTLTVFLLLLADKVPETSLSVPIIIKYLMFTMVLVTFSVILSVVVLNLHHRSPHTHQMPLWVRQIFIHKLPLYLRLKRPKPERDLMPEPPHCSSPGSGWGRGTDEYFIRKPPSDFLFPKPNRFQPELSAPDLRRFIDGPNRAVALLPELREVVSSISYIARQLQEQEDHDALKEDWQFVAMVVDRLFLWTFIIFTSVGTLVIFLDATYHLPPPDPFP
T2 sequence (Q07001 22-517): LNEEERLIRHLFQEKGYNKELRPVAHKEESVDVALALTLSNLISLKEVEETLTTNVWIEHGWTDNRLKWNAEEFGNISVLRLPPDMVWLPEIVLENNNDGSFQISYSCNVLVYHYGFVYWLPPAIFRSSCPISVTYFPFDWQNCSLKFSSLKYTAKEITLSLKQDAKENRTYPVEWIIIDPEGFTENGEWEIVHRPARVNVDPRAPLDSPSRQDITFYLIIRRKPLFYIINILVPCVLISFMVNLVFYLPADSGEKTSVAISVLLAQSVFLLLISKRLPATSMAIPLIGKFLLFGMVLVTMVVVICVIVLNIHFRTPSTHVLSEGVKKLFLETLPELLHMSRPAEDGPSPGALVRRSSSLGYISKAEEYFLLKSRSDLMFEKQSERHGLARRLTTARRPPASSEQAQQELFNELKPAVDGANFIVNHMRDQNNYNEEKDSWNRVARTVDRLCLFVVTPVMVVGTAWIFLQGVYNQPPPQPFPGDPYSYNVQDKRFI
T2 sequence (P02708 21-457): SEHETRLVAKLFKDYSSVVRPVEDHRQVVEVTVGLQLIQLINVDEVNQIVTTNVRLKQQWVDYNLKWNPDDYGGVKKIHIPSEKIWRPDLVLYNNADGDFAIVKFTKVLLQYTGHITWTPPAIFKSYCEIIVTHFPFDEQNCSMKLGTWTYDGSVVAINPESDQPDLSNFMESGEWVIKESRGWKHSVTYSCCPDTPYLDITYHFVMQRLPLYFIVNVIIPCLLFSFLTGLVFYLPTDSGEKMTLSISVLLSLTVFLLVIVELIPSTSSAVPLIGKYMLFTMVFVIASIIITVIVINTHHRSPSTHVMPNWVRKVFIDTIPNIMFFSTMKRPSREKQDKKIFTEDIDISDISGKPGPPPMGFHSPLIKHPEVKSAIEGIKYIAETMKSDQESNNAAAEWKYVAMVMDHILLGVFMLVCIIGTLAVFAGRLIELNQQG

| Structure (SMILES) | Ganglion Effect (% nicotine) (ganglionic receptors) | also measured |
| --- | --- | --- |
| CNCC/C=C/c1cncc(OCc2ccccc2)c1 [Sample No. 1, (E)-N-Methyl-4-[3-(5-benzyloxypyridin)yl]-3-buten-1-amine] | 0 | – |
| NCC/C=C/c1cncc(Br)c1 [Sample No. 2, (E)-4-[3-(5-Bromopyridin)yl]-3-buten-1-amine Hemifumarate] | 11 | Muscle Effect (% nicotine) (muscle receptors): 8; EC50 (CNS nicotinic receptors): 2400 nM; Dopamine Release Emax (CNS nicotinic receptors; percentage of release obtained with a concentration of (S)-(-)-nicotine resulting in maximal effects): 107% |
| CNCC/C=C/c1cncc(Oc2ccccc2)c1 [Sample No. 3, (E)-N-Methyl-4-[3-(5-phenoxypyridin)yl]-3-buten-1-amine] | < 15 | – |
| CNCC/C=C/c1cncc(OC(C)C)c1 [Sample No. 4, (E)-N-Methyl-4-[3-(5-isopropoxypyridin)yl]-3-buten-1-amine] | < 15 | – |
| CNCC/C=C/c1cncc(COC)c1 [Sample No. 5, (E)-N-Methyl-4-[3-(5-methoxymethylpyridin)yl]-3-buten-1-amine] | 0 | – |
| NCC/C=C/c1cccnc1.O=C(O)/C=C/C(=O)O.O=C(O)/C=C/C(=O)O [Sample No. 6, (E)-4-(3-pyridinyl)-3-buten-1-amine difumarate] | 23 | – |
| CCOc1cncc(/C=C/CCNC)c1 [Sample No. 7, (E)-N-Methyl-4-[3-(5-ethoxypyridin)yl]-3-buten-1-amine Sesquifumarate] | – | Emax (ganglionic receptors; read-out: Ganglion Effect (% nicotine)): < 15% |
| CNCC/C=C/c1cncc(-c2ccccc2)c1 [Sample No. 8, (E)-N-Methyl-4-[3-(5-phenylpyridin)yl]-3-buten-1-amine] | 0 | – |
| CNCC/C=C/c1cncc(N)c1 [Sample No. 9, (E)-N-methyl-4-[3-(5-aminopyridin)yl]-3-buten-1-amine] | 4 | – |
